Experimental data from US20250326739A1, “CD38 MODULATORS AND USES THEREOF” (Aeovian Pharmaceuticals, Inc., priority 2022, published 2025).

What was measured:
[1] = biological target: human CD38 (Homo sapiens (Human), UniProt P28907); test: NAD+ cyclase activity assay with human recombinant CD38 protein; format: biochemical; conditions: 1.9 nM human CD38, 15.8 μM e-NAD substrate, fluorescence read-out
Experimental: (§1) Example 5: NAD^+ Cydase Activity Assay with Human or Mouse Recombinant CD38 Protein
(§2) The following assay was used to determine the ability of compounds of the invention to inhibit the hydrolysis of NAD^+ by the human or mouse enzyme, CD38.
(§3) Reaction buffer: 40 mM HEPES/NaOH pH 7.5, 250 mM sucrose, 0.01% Tween
(§4) Final concentrations: 0.6 nM mouse CD38 (4947-AC, Bio-Techne GmbH) 1.9 nM human CD38 (AVI2404, Bio-Techne GmbH)
(§5) Substrate: 15.8 μM Nicotinamide 1,N6-ethenoadenine dinucleotide (E-NAD)
(§6) Read-out: Fluorescence intensity (extinction 300 nm/emission 410 nm)
(§7) Required reaction buffer, required CD38 concentration in reaction buffer and required e-NAD concentration in reaction buffer were prepared. Thereafter, 8 μL of CD38 in reaction buffer were added to High Control and compound concentration wells in 384 well plate (Corning #4514, 384 well, nonbinding surface, low volume, round bottom) and 8 μL of reaction buffer to Low Control. Compound dilutions were transferred via pintool technology that transfers 42.5 nL compound dilutions (12-point dose-response with factor three dilutions in 100% DMSO) well-to-well. Plate was subsequently shaken for 15 s at 1450 rpm and sealed for incubation for 30 min at room temperature. Thereafter, 2 μL of e-NAD in reaction buffer were added with Integra Voyager. After shaking for 15 s at 1450 rpm, plate was sealed, and assay signal was measured continuously with PHERAstar® fluorescence intensity module (extinction 300 nm/emission 410 nm).
(§8) Dose-response curves were constructed using twelve-point factor three dilutions in triplicates per plate. High control (full enzyme activity) was set to assay signal of CD38 and e-NAD in presence of vehicle (DMSO) and Low control (full enzyme inhibition) was set to assay signal of e-NAD and vehicle (DMSO) in absence of CD38. For data analysis, fluorescent signal of traces corresponding to each compound concentration and High and Low control was monitored over time. Each run, High Control (full enzyme activity) was fitted to Linear equation via GraphPad Prism to determine CD38 activity from the slope and determine the time interval of linear phase of reaction to account for minor fluctuations. Thereafter, slopes of all compound concentrations were determined via fitting to same linear equation (GraphPad Prism) over the same time interval as determined for High control. Percentage inhibition was calculated via normalization to High and Low Control via the equation: %−inhibition=100*(1−((Sample−Low control)/(High control−Low control))) Half maximal inhibitory concentration (IC50) values are yielded from the inflection point of the corresponding curve by fitting of resulting percentage inhibition values to standard equation (4 Parameter Logistic Model or Sigmoidal Dose-Response Model) via Excel Fit. Unless otherwise stated, fitting of curves was fixed to 100%-inhibition and unlocked for 0%-inhibition.

[2] = biological target: mouse CD38 (Mus musculus (Mouse), UniProt P56528); test: NAD+ cyclase activity assay with mouse recombinant CD38 protein; format: biochemical; conditions: 0.6 nM mouse CD38, 15.8 μM e-NAD substrate, fluorescence read-out
mouse CD38, sequence (P56528 whole entry): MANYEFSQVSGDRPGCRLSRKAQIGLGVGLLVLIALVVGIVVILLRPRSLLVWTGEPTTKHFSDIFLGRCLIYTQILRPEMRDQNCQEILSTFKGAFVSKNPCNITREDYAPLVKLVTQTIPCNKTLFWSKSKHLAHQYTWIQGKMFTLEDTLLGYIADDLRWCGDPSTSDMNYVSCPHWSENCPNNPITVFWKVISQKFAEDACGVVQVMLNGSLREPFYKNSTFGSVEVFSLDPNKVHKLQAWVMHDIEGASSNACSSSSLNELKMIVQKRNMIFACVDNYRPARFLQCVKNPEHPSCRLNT
Experimental: as §1, §2, §3, §4, §5, §6, §7, §8

human CD38, sequence (P28907 whole entry): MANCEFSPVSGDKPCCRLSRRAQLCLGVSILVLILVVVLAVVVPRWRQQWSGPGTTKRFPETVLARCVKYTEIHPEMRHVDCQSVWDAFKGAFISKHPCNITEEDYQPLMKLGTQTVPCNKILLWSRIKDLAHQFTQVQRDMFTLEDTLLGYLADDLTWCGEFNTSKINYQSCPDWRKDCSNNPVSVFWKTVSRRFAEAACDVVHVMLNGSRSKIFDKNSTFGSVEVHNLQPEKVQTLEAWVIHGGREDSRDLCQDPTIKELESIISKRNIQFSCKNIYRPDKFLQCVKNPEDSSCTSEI

Structure (SMILES) | IC50 [1] | IC50 [2]
Cc1cc(C(=O)NC2CCN(C(=O)N(C)C)CC2)nc(-n2ccnc2)c1 [Compound 21A, N-(1-(Dimethylcarbamoyl)piperidin-4-yl)-6-(1H-imidazol-1-yl)-4-methylpicolinamide] | 30 to 100 nM | 1 to 10 nM
Cc1cc(C(=O)N[C@H]2CCS(=O)(=O)C2)nc(-n2ccnc2)c1 [Compound 55A, (S)—N-(1,1-Dioxidotetrahydrothiophen-3-yl)-6-(1H-imidazol-1-yl)-4-methylpicolinamide] | 100 to 1000 nM | 1 to 10 nM
Cc1cc(C(=O)N[C@H]2CCCOC2)nc(-n2ccnc2)c1 [Compound 45A, (S)-6-(1H-Imidazol-1-yl)-4-methyl-N-(tetrahydro-2H-pyran-3-yl)picolinamide] | 100 to 1000 nM | 1 to 10 nM
O=C(N[C@@H]1CCS(=O)(=O)C1)c1cc(C(F)(F)F)nc(-n2ccnc2)n1 [Compound 77A, (R)—N-(1,1-Dioxidotetrahydrothiophen-3-yl)-2-(1H-imidazol-1-yl)-6-(trifluoromethyl)pyrimidine-4-carboxamide] | 30 to 100 nM | 1 to 10 nM
Cc1cc(C(=O)N[C@H]2CCCS(=O)(=O)C2)nc(-n2ccnc2)c1 [Compound 84A, (S)—N-(1,1-Dioxidotetrahydro-2H-thiopyran-3-yl)-6-(1H-imidazol-1-yl)-4-methylpicolinamide] | 100 to 1000 nM | 10 to 100 nM
Cc1cc(C(=O)N[C@H]2CCN(S(C)(=O)=O)C2)nc(-n2ccnc2)c1 [Compound 46A, (S)-6-(1H-imidazol-1-yl)-4-methyl-N-(1-(methylsulfonyl)pyrrolidin-3-yl)picolinamide] | 100 to 1000 nM | 1 to 10 nM
Cc1cc(C(=O)N[C@@H]2CCN(C(=O)OC(C)(C)C)C2)nc(-n2ccnc2)c1 [Compound 43A, tert-Butyl (R)-3-(6-(1H-imidazol-1-yl)-4-methylpicolinamido)pyrrolidine-1-carboxylate] | < 30 nM | 1 to 10 nM
Cc1cc(C(=O)NC2CCN(S(=O)(=O)C3CCOC3)CC2)nc(-n2ccnc2)c1 (stereo not drawn) [Compound 72A, 6-(1H-Imidazol-1-yl)-4-methyl-N-(1-((tetrahydrofuran-3-yl)sulfonyl)piperidin-4-yl)picolinamide] | < 30 nM | < 1 nM
Cc1cc(C(=O)N[C@@H]2CCN(S(C)(=O)=O)C2)nc(-n2ccnc2)c1 [Compound 53A, (R)-6-(1H-Imidazol-1-yl)-4-methyl-N-(1-(methylsulfonyl)pyrrolidin-3-yl)picolinamide] | 100 to 1000 nM | 1 to 10 nM
Cc1cc(C(=O)NC2CC3CCC(C2)O3)nc(-n2ccnc2)c1 (stereo not drawn) [Compound 28A, N-(8-Oxabicyclo[3.2.1]octan-3-yl)-6-(1H-imidazol-1-yl)-4-methylpicolinamide] | 100 to 1000 nM | 1 to 10 nM
Cc1cc(C(=O)N[C@@H]2CCCNC2=O)nc(-n2ccnc2)c1 [Compound 58A, (R)-6-(1H-Imidazol-1-yl)-4-methyl-N-(2-oxopiperidin-3-yl)picolinamide] | > 1000 nM | 10 to 100 nM
Cc1cc(C(=O)NC2CCN(S(=O)(=O)C3COC3)CC2)nc(-n2ccnc2)c1 [Compound 87A, 6-(1H-Imidazol-1-yl)-4-methyl-N-(1-(oxetan-3-ylsulfonyl)piperidin-4-yl)picolinamide] | < 30 nM | 1 to 10 nM
Cc1cc(C(=O)N[C@H]2COCC(F)(F)C2)nc(-n2ccnc2)c1 [Compound 66A, (R)—N-(5,5-Difluorotetrahydro-2H-pyran-3-yl)-6-(1H-imidazol-1-yl)-4-methylpicolinamide] | 30 to 100 nM | < 1 nM
Cc1cc(C(=O)N[C@H]2CCCN(S(C)(=O)=O)C2)nc(-n2ccnc2)c1 [Compound 50A, (S)-6-(1H-Imidazol-1-yl)-4-methyl-N-(1-(methylsulfonyl)piperidin-3-yl)picolinamide] | 100 to 1000 nM | 1 to 10 nM
Cc1cc(C(=O)N[C@@H]2CCOC2)nc(-n2ccnc2)c1 [Compound 42A, (R)-6-(1H-Imidazol-1-yl)-4-methyl-N-(tetrahydrofuran-3-yl)picolinamide] | 30 to 100 nM | 1 to 10 nM

The remaining lines, values ahead:

IC50 [1] | IC50 [2] | Structure (SMILES)
< 30 nM | 1 to 10 nM | CS(=O)(=O)N1CCC(NC(=O)c2ccnc(-n3ccnc3)n2)CC1 [Compound 73A, 2-(1H-Imidazol-1-yl)-N-(1-(methylsulfonyl)piperidin-4-yl)pyrimidine-4-carboxamide]
30 to 100 nM | 1 to 10 nM | CCCC(=O)N1CCC(NC(=O)c2cc(C)cc(-n3ccnc3)n2)CC1 [Compound 13A, N-(1-Butyrylpiperidine-4-yl)-6-(1H-imidazol-1-yl)-4-methylpicolinamide]
< 30 nM | 1 to 10 nM | CCCS(=O)(=O)N1CCC(NC(=O)c2cc(C)cc(-n3ccnc3)n2)CC1 [Compound 6A, 6-(1H-Imidazol-1-yl)-4-methyl-N-(1-(propylsulfonyl)piperidin-4-yl)picolinamide]
< 30 nM | 1 to 10 nM | COCCS(=O)(=O)N1CCC(NC(=O)c2cc(C)cc(-n3ccnc3)n2)CC1 [Compound 4A, 6-(1H-Imidazol-1-yl)-N-(1-((2-methoxyethyl)sulfonyl)piperidin-4-yl)-4-methylpicolinamide]
< 30 nM | 1 to 10 nM | Cc1cc(C(=O)NC2CCN(S(=O)(=O)N(C)C)CC2)nc(-n2ccnc2)c1 [Compound 18A, N-(1-(N,N-Dimethylsulfamoyl)piperidin-4-yl)-6-(1H-imidazol-1-yl)-4-methylpicolinamide]
< 30 nM | < 1 nM | Cc1cc(C(=O)N[C@@H]2CCS(=O)(=O)C2)nc(-n2ccnc2)n1 [Compound 68A, (R)—N-(1,1-Dioxidotetrahydrothiophen-3-yl)-2-(1H-imidazol-1-yl)-6-methylpyrimidine-4-carboxamide]
< 30 nM | < 1 nM | Cc1cc(C(=O)NC2CCN(S(C)(=O)=O)CC2)nc(-n2ccnc2)n1 [Compound 61A, 2-(1H-Imidazol-1-yl)-6-methyl-N-(1-(methylsulfonyl)piperidin-4-yl)pyrimidine-4-carboxamide]
30 to 100 nM | 1 to 10 nM | Cc1cc(C(=O)NC2CCS(=O)(=O)C2)nc(-n2ccnc2)c1 (stereo not drawn) [Compound 23A, N-(1,1-Dioxidotetrahydrothiophen-3-yl)-6-(1H-imidazol-1-yl)-4-methylpicolinamide]
100 to 1000 nM | 1 to 10 nM | CNS(=O)(=O)N1CCC(NC(=O)c2cc(C)cc(-n3ccnc3)n2)CC1 [Compound 14A, 6-(1H-Imidazol-1-yl)-4-methyl-N-(1-(N-methylsulfamoyl)piperidin-4-yl)picolinamide]
30 to 100 nM | 1 to 10 nM | COc1cc(C(=O)NC2CCN(S(C)(=O)=O)CC2)nc(-n2ccnc2)c1 [Compound 15A, 6-(1H-Imidazol-1-yl)-4-methoxy-N-(1-(methylsulfonyl)piperidin-4-yl)picolinamide]
< 30 nM | 1 to 10 nM | CS(=O)(=O)N1CCC(NC(=O)c2cc(C(F)(F)F)cc(-n3ccnc3)n2)CC1 [Compound 82A, 6-(1H-Imidazol-1-yl)-N-(1-(methylsulfonyl)piperidin-4-yl)-4-(trifluoromethyl)picolinamide]
30 to 100 nM | 1 to 10 nM | Cc1cc(C(=O)NC2COCCC2(F)F)nc(-n2ccnc2)c1 (stereo not drawn) [Compound 25A, N-(4,4-Difluorotetrahydro-2H-pyran-3-yl)-6-(1H-imidazol-1-yl)-4-methylpicolinamide]
> 1000 nM | 10 to 100 nM | Cc1cc(C(=O)N[C@@H]2CCCN(C3COC3)C2)nc(-n2ccnc2)c1 [Compound 83A, (R)-6-(1H-Imidazol-1-yl)-4-methyl-N-(1-(oxetan-3-yl)piperidin-3-yl)picolinamide]
< 30 nM | 1 to 10 nM | CNC(=O)N1CCC(NC(=O)c2cc(C)cc(-n3ccnc3)n2)CC1 [Compound 22A, 6-(1H-Imidazol-1-yl)-4-methyl-N-(1-(methylcarbamoyl)piperidin-4-yl)picolinamide]
30 to 100 nM | 1 to 10 nM | O=C(N[C@@H]1CCCOC1)c1cc(C(F)(F)F)nc(-n2ccnc2)n1 [Compound 76A, (R)-2-(1H-Imidazol-1-yl)-N-(tetrahydro-2H-pyran-3-yl)-6-(trifluoromethyl)pyrimidine-4-carboxamide]
